pIC50: −log10 of the molar value.
How the values were obtained:
Experiment in all cases: cells
A673 = assay type: functional, cell-based, Homo sapiens; conditions: Homo sapiens, A673;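 further: growth inhibition of human A673 cells, read out through a cell viability assay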
Description: SANGER: Inhibition of human A673 cell growth in a cell viability assay.

SW626 = assay type: functional, cell-based, Homo sapiens; conditions: Homo sapiens, SW626;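 further: growth inhibition of SW626 cells, measured with a cell viability assay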
Description: SANGER: Inhibition of human SW626 cell growth in a cell viability assay.

SW-620 = assay type: functional, cell-based, Homo sapiens; conditions: Homo sapiens, SW-620;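 further: growth inhibition of human SW-620 cells, measured by a cell viability assay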
Description: SANGER: Inhibition of human SW620 cell growth in a cell viability assay.

8505C = assay type: functional, cell-based, Homo sapiens; conditions: Homo sapiens, 8505C
Description: SANGER: Inhibition of human 8505C cell growth in a cell viability assay.

DoTc2-4510 = assay type: functional, cell-based, Homo sapiens; conditions: Homo sapiens, DoTc2-4510
SK-MEL3 = assay type: functional, cell-based, Homo sapiens, SK-MEL-3; conditions: Homo sapiens, SK-MEL3;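 further: growth inhibition of human SK-MEL-3 cells, read out with a cell viability assay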
Description: SANGER: Inhibition of human SK-MEL-3 cell growth in a cell viability assay.

KYSE-450 = assay type: functional, cell-based, Homo sapiens; conditions: Homo sapiens, KYSE-450;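 further: cell growth inhibition measured by a viability assay in human KYSE-450 cells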
Description: SANGER: Inhibition of human KYSE-450 cell growth in a cell viability assay.

MEL-HO = assay type: functional, cell-based, Homo sapiens; conditions: Homo sapiens, MEL-HO
Description: SANGER: Inhibition of human MEL-HO cell growth in a cell viability assay.

Daoy = assay type: functional, cell-based, Homo sapiens; conditions: Homo sapiens, Daoy;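 further: daoy cell growth inhibition, read out as cell viability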
Description: SANGER: Inhibition of human Daoy cell growth in a cell viability assay.

A-427 = assay type: functional, cell-based, Homo sapiens; conditions: Homo sapiens, A-427;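 further: growth inhibition of human A-427 cells, read out by a cell viability assay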
Description: SANGER: Inhibition of human A427 cell growth in a cell viability assay.

LCLC-97TM1 = assay type: functional, cell-based, Homo sapiens; conditions: Homo sapiens, LCLC-97TM1;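 further: cell viability assay measuring growth inhibition of human LCLC-97TM1 cells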
Description: SANGER: Inhibition of human LCLC-97TM1 cell growth in a cell viability assay.

ESS-1 = assay type: functional, cell-based, Homo sapiens; conditions: Homo sapiens, ESS-1;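 further: growth inhibition of human ESS-1 cells, read out by a cell viability assay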
Description: SANGER: Inhibition of human ESS-1 cell growth in a cell viability assay.

CHP-212 = assay type: functional, cell-based, Homo sapiens; conditions: Homo sapiens, CHP-212
Description: SANGER: Inhibition of human CHP-212 cell growth in a cell viability assay.

OAW-28 = assay type: functional, cell-based, Homo sapiens; conditions: Homo sapiens, OAW-28;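 further: growth inhibition of OAW-28 cells, read out with a cell viability assay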
Description: SANGER: Inhibition of human OAW-28 cell growth in a cell viability assay.

CAKI-1 = assay type: functional, cell-based, Homo sapiens; conditions: Homo sapiens, CAKI-1;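 further: growth inhibition of CAKI-1 cells, measured by a cell viability assay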
Description: SANGER: Inhibition of human CAKI-1 cell growth in a cell viability assay.

KNS-62 = assay type: functional, cell-based, Homo sapiens; conditions: Homo sapiens, KNS-62;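 further: inhibition of cell growth, read out with a cell viability assay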
Description: SANGER: Inhibition of human KNS-62 cell growth in a cell viability assay.

HCC70 = assay type: functional, cell-based, Homo sapiens; conditions: Homo sapiens, HCC70;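 further: cell viability assay measuring how strongly the compound suppresses proliferation of HCC70 cells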
Description: SANGER: Inhibition of human HCC70 cell growth in a cell viability assay.

NCI-H522 = assay type: functional, cell-based, Homo sapiens; conditions: Homo sapiens, NCI-H522;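 further: cell viability assay measuring growth inhibition of human NCI-H522 cells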
Description: SANGER: Inhibition of human NCI-H522 cell growth in a cell viability assay.

HuP-T3 = assay type: functional, cell-based, Homo sapiens; conditions: Homo sapiens, HuP-T3;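 further: HuP-T3 cell growth inhibition, read out with a cell viability assay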
Description: SANGER: Inhibition of human HuP-T3 cell growth in a cell viability assay.

H-EMC-SS = assay type: functional, cell-based, Homo sapiens; conditions: Homo sapiens, H-EMC-SS
Description: SANGER: Inhibition of human H-EMC-SS cell growth in a cell viability assay.

NCI-H810 = assay type: functional, cell-based, Homo sapiens; conditions: Homo sapiens, NCI-H810;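 further: IC50 reflects inhibition of cancer cell line growth, read out with a cell viability assay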
Description: SANGER: Inhibition of human NCI-H810 cell growth in a cell viability assay.

CAL-33 = assay type: functional, cell-based, Homo sapiens; conditions: Homo sapiens, CAL-33;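 further: growth inhibition of CAL-33 cells, read out with a cell viability assay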
Description: SANGER: Inhibition of human CAL-33 cell growth in a cell viability assay.

HT55 = assay type: functional, cell-based, Homo sapiens; conditions: Homo sapiens, HT55;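 further: cell viability readout measuring growth inhibition of human HT55 cells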
Description: SANGER: Inhibition of human HT55 cell growth in a cell viability assay.

KYSE-520 cell line = assay type: functional, cell-based, Homo sapiens; conditions: Homo sapiens, KYSE-520;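 further: growth inhibition of human KYSE-520 cells, read out with a viability assay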
Description: SANGER: Inhibition of human KYSE-520 cell growth in a cell viability assay.

NCI-H292 = assay type: functional, cell-based, Homo sapiens; conditions: Homo sapiens, NCI-H292;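 further: growth inhibition of NCI-H292 cells, read out with a cell viability assay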
Description: SANGER: Inhibition of human NCI-H292 cell growth in a cell viability assay.

SK-N-AS = assay type: functional, cell-based, Homo sapiens; conditions: Homo sapiens, SK-N-AS;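 further: growth inhibition of human SK-N-AS cells, measured with a cell viability assay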
Description: SANGER: Inhibition of human SK-N-AS cell growth in a cell viability assay.

BCPAP = assay type: functional, cell-based, Homo sapiens; conditions: Homo sapiens, BCPAP;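 further: growth inhibition of BCPAP cells, read out in a cell viability assay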
Description: SANGER: Inhibition of human BCPAP cell growth in a cell viability assay.

SW1088 = assay type: functional, cell-based, Homo sapiens; conditions: Homo sapiens, SW1088;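 further: growth inhibition of human SW1088 cells, read out by a cell viability assay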
Description: SANGER: Inhibition of human SW1088 cell growth in a cell viability assay.

CAL-54 = assay type: functional, cell-based, Homo sapiens; conditions: Homo sapiens, CAL-54;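 further: growth inhibition of CAL-54 cells, read out by a viability measurement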
Description: SANGER: Inhibition of human CAL-54 cell growth in a cell viability assay.

RERF-LC-MS = assay type: functional, cell-based, Homo sapiens; conditions: Homo sapiens, RERF-LC-MS;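 further: growth inhibition of human RERF-LC-MS cells, read out by a cell viability assay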
Description: SANGER: Inhibition of human RERF-LC-MS cell growth in a cell viability assay.

HTC-C3 = assay type: functional, cell-based, Homo sapiens; conditions: Homo sapiens, HTC-C3;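 further: inhibition of cell growth, read out with a cell viability assay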
Description: SANGER: Inhibition of human HTC-C3 cell growth in a cell viability assay.

NCI-H596 = assay type: functional, cell-based, Homo sapiens; conditions: Homo sapiens, NCI-H596;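 further: growth inhibition of NCI-H596 cells, read out with a cell viability assay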
Description: SANGER: Inhibition of human NCI-H596 cell growth in a cell viability assay.

KOSC-2 = assay type: functional, cell-based, Homo sapiens; conditions: Homo sapiens, KOSC-2;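 further: growth inhibition of KOSC-2 cells, read out by a cell viability assay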
Description: SANGER: Inhibition of human KOSC-2 cell growth in a cell viability assay.

SK-MEL-28 = assay type: functional, cell-based, Homo sapiens; conditions: Homo sapiens, SK-MEL-28;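 further: growth inhibition of human SK-MEL-28 cells, read out with a cell viability assay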
Description: SANGER: Inhibition of human SK-MEL-28 cell growth in a cell viability assay.

A-375 = assay type: functional, cell-based, Homo sapiens; conditions: Homo sapiens, A-375;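 further: growth inhibition of A375 cells, read out with a cell viability assay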
Description: SANGER: Inhibition of human A375 cell growth in a cell viability assay.

MKN-45 = assay type: functional, cell-based, Homo sapiens; conditions: Homo sapiens, MKN-45;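 further: growth inhibition of human MKN-45 cells, measured with a cell viability assay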
Description: SANGER: Inhibition of human MKN45 cell growth in a cell viability assay.

SMILES	pIC50 (A673)	pIC50 (SW626)	pIC50 (SW-620)	pIC50 (8505C)	pIC50 (DoTc2-4510)	pIC50 (SK-MEL3)	pIC50 (KYSE-450)	pIC50 (MEL-HO)	pIC50 (Daoy)	pIC50 (A-427)	pIC50 (LCLC-97TM1)	pIC50 (ESS-1)	pIC50 (CHP-212)	pIC50 (OAW-28)	pIC50 (CAKI-1)	pIC50 (KNS-62)	pIC50 (HCC70)	pIC50 (HuP-T3)	pIC50 (H-EMC-SS)	pIC50 (NCI-H810)	other results
Cn1cnc2c(F)c(Nc3ccc(Br)cc3Cl)c(C(=O)NOCCO)cc21 [SELUMETINIB]	< 5.40	< 5.40	6.52	< 5.40	< 5.40	5.71	< 5.40	6.86	< 5.40	< 5.40	5.99	< 5.40	> 7.81	5.76	< 5.40	< 5.40	< 5.40	< 5.40	6.54	< 5.40	pIC50 (NCI-H522): < 5.40; pIC50 (CAL-33): 5.81; pIC50 (HT55): < 5.40; pIC50 (KYSE-520 cell line): < 5.40; pIC50 (NCI-H292): 5.95; pIC50 (SK-N-AS): 7.03; pIC50 (BCPAP): 5.67; pIC50 (SW1088): < 5.40; pIC50 (CAL-54): 5.83; pIC50 (RERF-LC-MS): < 5.40; pIC50 (HTC-C3): 6.67; pIC50 (NCI-H596): < 5.40; pIC50 (KOSC-2): < 5.40
CS(=O)(=O)c1ccc(C(=O)Nc2ccc(Cl)c(-c3ccccn3)c2)c(Cl)c1 [VISMODEGIB]	< 5.00	< 5.00	< 5.00	< 5.00	< 5.00	< 5.00	< 5.00	< 5.00	< 5.00	< 5.00	< 5.00	< 5.00	< 5.00	< 5.00	< 5.00	< 5.00	< 5.00	< 5.00	< 5.00	< 5.00	pIC50 (SK-MEL-28): < 5.00; pIC50 (A-375): < 5.00; pIC50 (CAL-33): < 5.00; pIC50 (HT55): < 5.00; pIC50 (KYSE-520 cell line): < 5.00; pIC50 (MKN-45): < 5.00; pIC50 (NCI-H292): < 5.00; pIC50 (SK-N-AS): < 5.00; pIC50 (BCPAP): < 5.00; pIC50 (SW1088): < 5.00; pIC50 (CAL-54): < 5.00; pIC50 (RERF-LC-MS): < 5.00; pIC50 (HTC-C3): < 5.00; pIC50 (NCI-H596): < 5.00; pIC50 (KOSC-2): < 5.00
CO[C@H]1C[C@@H]2CC[C@@H](C)[C@@](O)(O2)C(=O)C(=O)N2CCCC[C@H]2C(=O)O[C@H]([C@H](C)C[C@@H]2CC[C@@H](OC(=O)C(C)(CO)CO)[C@H](OC)C2)CC(=O)[C@H](C)/C=C(\C)[C@@H](O)[C@@H](OC)C(=O)[C@H](C)C[C@H](C)/C=C/C=C/C=C/1C [TEMSIROLIMUS]	6.79	< 6.70	6.97	< 6.70	< 6.70	< 6.70	< 6.70	7.47	7.29	6.74	< 6.70	< 6.70	7.28	< 6.70	7.16	7.30	6.80	< 6.70	< 6.70	< 6.70	pIC50 (SK-MEL-28): 6.88; pIC50 (A-375): < 6.70; pIC50 (CAL-33): < 6.70; pIC50 (HT55): < 6.70; pIC50 (KYSE-520 cell line): 6.86; pIC50 (MKN-45): < 6.70; pIC50 (NCI-H292): 8.01; pIC50 (SK-N-AS): 6.90; pIC50 (BCPAP): 7.23; pIC50 (SW1088): 7.50; pIC50 (CAL-54): 6.93; pIC50 (RERF-LC-MS): < 6.70; pIC50 (HTC-C3): 7.17; pIC50 (NCI-H596): < 6.70; pIC50 (KOSC-2): 6.78
Nc1cccc2c1CN(C1CCC(=O)NC1=O)C2=O (stereo not drawn) [LENALIDOMIDE]	< 5.30	< 5.30	< 5.30	< 5.30	< 5.30	< 5.30	< 5.30	< 5.30	< 5.30	< 5.30	< 5.30	< 5.30	< 5.30	< 5.30	< 5.30	< 5.30	< 5.30	< 5.30	< 5.30	< 5.30	pIC50 (SK-MEL-28): < 5.30; pIC50 (A-375): < 5.30; pIC50 (CAL-33): < 5.30; pIC50 (HT55): < 5.30; pIC50 (KYSE-520 cell line): < 5.30; pIC50 (MKN-45): < 5.30; pIC50 (NCI-H292): < 5.30; pIC50 (SK-N-AS): < 5.30; pIC50 (BCPAP): < 5.30; pIC50 (SW1088): < 5.30; pIC50 (CAL-54): < 5.30; pIC50 (RERF-LC-MS): < 5.30; pIC50 (HTC-C3): < 5.30; pIC50 (NCI-H596): < 5.30; pIC50 (KOSC-2): < 5.30

From ChEMBL document CHEMBL1201861, “Genomics of Drug Sensitity in Cancer screening data, Wellcome Trust Sanger Institute”
